Square brackets hold non-standard residues; d marks the D form. Peptide text beside a SMILES is read from it. Met(O) = CS(=O)CC[C@H](N)C(=O)O; pS = N[C@@H](COP(=O)(O)O)C(=O)O
Experiments:
MRL/lpr mice [1] = assay: Survival analysis in MRL/lpr mice; format: in vivo, mouse; settings: female MRL/lpr mice, peptide intravenously from five weeks of age; NaCl control 25 weeks
Procedure: It has been determined that this mouse strain carries a mutation in the fas gene. Also, the MRL/lpr is a useful model to study behavioural and cognitive deficits found in autoimmune diseases and the efficacy of immunosuppressive agents [Monneaux et al., 2003, Eur. J. Immunol. 33, 287-296].
Five-week-old female MRL/lpr mice received P140 or peptide P140(MO) intravenously as described (Monneaux et al., 2003, Eur. J. Immunol. 33, 287-296). All experimental protocols were carried out with the approval of the local Institutional Animal Care and Use Committee (CREMEAS). As control, mice were injected with NaCl.
Twenty mice were used for each peptide or NaCl.
(§1) Statistical tests were performed using GraphPad Prism version 5.0. The two-way ANOVA test was used to analyze statistical significance of proteinuria differences between control and peptide-treated groups of mice. Survival of control and P140 analogue-treated female MRL/lpr mice was analyzed by the Kaplan-Meier method, and the significance of differences was determined by the log-rank test. For the other variables, statistical significance was assessed using the Student's t-test. p values less than 0.05 were considered significant.

HSC70 protein = target: T1, HSC70 protein (Bos taurus, UniProt P19120); assay: Affinity of the peptides for HSC70 protein (BIAcore); format: binding, bovine
T1 construct: purchased Stressgen
T1 sequence (P19120 whole entry): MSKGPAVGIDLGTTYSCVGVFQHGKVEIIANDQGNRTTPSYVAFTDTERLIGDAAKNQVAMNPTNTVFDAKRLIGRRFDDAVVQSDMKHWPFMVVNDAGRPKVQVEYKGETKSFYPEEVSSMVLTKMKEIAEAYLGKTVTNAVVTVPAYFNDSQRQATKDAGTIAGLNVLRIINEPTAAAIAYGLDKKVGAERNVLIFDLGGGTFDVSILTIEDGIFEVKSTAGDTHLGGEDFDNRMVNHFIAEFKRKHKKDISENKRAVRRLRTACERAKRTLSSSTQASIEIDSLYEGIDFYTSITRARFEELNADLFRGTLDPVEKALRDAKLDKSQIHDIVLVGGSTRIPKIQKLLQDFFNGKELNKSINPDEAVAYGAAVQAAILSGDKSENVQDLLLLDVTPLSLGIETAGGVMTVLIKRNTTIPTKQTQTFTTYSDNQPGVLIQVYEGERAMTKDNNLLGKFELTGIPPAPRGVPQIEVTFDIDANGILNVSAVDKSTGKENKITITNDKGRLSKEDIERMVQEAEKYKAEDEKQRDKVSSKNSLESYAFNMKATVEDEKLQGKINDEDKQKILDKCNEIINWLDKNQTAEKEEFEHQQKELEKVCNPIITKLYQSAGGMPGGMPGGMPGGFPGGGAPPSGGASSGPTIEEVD
Procedure: BIAcore 3000 system (Biacore AB) was used to evaluate the binding of P140 peptides to HSC70 protein (Page et al., 2009, and 2011). Sensor chip CMS, surfactant P20, amine coupling kit containing N-hydroxysuccinimide (NHS) and N-ethyl-N′-dimethylaminopropyl carbodiimide (EDC), 2-(2-pyridinyldithio)ethaneamine (PDEA) and ethanolamine were from Biacore AB. Biosensor assays were performed with HBS-EP buffer as running buffer (10 mM HEPES, 150 mM NaCl, 3 mM EDTA, 0.005% surfactant P20, pH 7.4). The compounds were diluted in the running buffer. The sensor chip surface was regenerated after each experiment by injecting 10 μL of 10 mM HCl. Recombinant bovine HSC70 (Stressgen) was immobilized on flow cells of a CM5 sensor chip through its thiol groups using 35 μL PDEA in 50 mM borate buffer, pH 8.3 on the NHS/EDC-activated matrix. Then, 35 μL of HSC70 (100 μg/mL in formate buffer, pH 4.3) were injected until a response of 13,000 response units (RU) corresponding to 13 ng/mm^2 of HSC70 was immobilized. Twenty μL of a 50 mM cysteine/1 M NaCl solution was used to saturate unoccupied sites on the chip. The direct binding measurement of P140 peptides to HSC70 was carried out at 25° C. with a constant flow rate of 20 μL/min. P140 peptide and analogues were injected in the flux at different concentrations for 3 min, followed by a dissociation phase of 3 min. The kinetic parameters were calculated using the BIAeval 3.1 software on a personal computer. Analysis was performed using the simple 1:1 Langmuir binding model. The specific binding profiles were obtained after subtracting the response signal from the control empty channel and from blank-buffer injection. The fitting to each model was judged by the χ^2 value and randomness of residue distribution compared to the theoretical model.

MRL/lpr mice [2] = assay: Cellularity analysis (peripheral blood) in MRL/lpr mice; format: in vivo, mouse; settings: 100 μg/100 μL, 5 days after unique injection
Procedure: MRL/lpr mice were injected with 100 μg/100 μL of P140 or P140(MO) and cellularity (peripheral blood) was studied 5 days after this unique injection. The count includes all the leucocytes. In view of the low number of tested mice, a non parametric statistical test has been realised Mann-Whitney).

MRL/lpr mice [3] = assay: Proteinuria analysis in MRL/lpr mice; format: in vivo, mouse; settings: Albustix score, compared to the untreated mice
Procedure: Proteinuria of the above mice was measured in fresh urine using Albustix (Bayer Diagnostics) and was semi-quantitatively estimated according to a […] recommended by the manufacturer (no proteinuria=0; traces=1; 1+=2; 2+=3; 3+=4; 4+=5).
as §1

[4] = Stability of the peptides at 37° C. (HPLC peak area); format: physicochemical; settings: for 95% of stability (predicted): time to 95% from linear equation; for Stability (%) Linear equation: slope: y = stability %, x = days; for Stability (%): 10% mannitol
Procedure: The stability of the peptide SEQ ID NO: 1 in which the serine at position 10 is phosphorylated and the methionine at position 4 is oxydized (P140(MO)), and the peptide SEQ ID NO: 1 in which the serine at position 10 is phosphorylated (P140) was measured at 37° C., in a solution of 10% (v/v) mannitol. For each peptide, 3 concentrations have been tested: 200, 100 and 50 μg/mL.
At the indicated time, the integrity of P140 and P140(MO) peptides was measured in saline by high-performance liquid chromatography from the area of the peak corresponding to the intact peptide.
Stability is measured by using the HPLC peak surface.

[5] = BIAcore, 25° C., 1:1 Langmuir model, global fit

CC[C@H](C)[C@H](NC(=O)[C@H](Cc1ccccc1)NC(=O)[C@H](C)NC(=O)[C@H](Cc1ccc(O)cc1)NC(=O)CNC(=O)[C@H](CCCNC(=N)N)NC(=O)[C@@H]1CCCN1C(=O)[C@H](CCCCN)NC(=O)CNC(=O)[C@H](COP(=O)(O)O)NC(=O)[C@H](CCCNC(=N)N)NC(=O)[C@H](CCCCN)NC(=O)[C@H](CO)NC(=O)[C@H](Cc1ccc(O)cc1)NC(=O)[C@@H](NC(=O)[C@H](CC[S+](C)[O-])NC(=O)[C@H](Cc1c[nH]cn1)NC(=O)[C@@H](NC(=O)[C@@H](N)CCCNC(=N)N)[C@@H](C)CC)C(C)C)C(=O)N[C@@H](CCC(=O)O)C(=O)N[C@@H](Cc1ccc(O)cc1)C(=O)O (stereo partly shown) [P140(MO), RIHM(O)VYSKRS(PO3H2)GKPRGYAFIEY] (H-RIH[Met(O)]VYSKR[pS]GKPRGYAFIEY-OH)
Median survival of mice (MRL/lpr mice [1]): > 40 weeks
Rmax (HSC70 protein; BIAcore, 25° C., 1:1 Langmuir model): 39 RU
KA (HSC70 protein; [5]): 524000 M⁻¹
kd (HSC70 protein; [5]): 0.0022 s⁻¹
RI (HSC70 protein; peptide 1.56 μM): 14 RU
Req (HSC70 protein; peptide 1.56 μM): 17.6 RU
kobs (HSC70 protein; peptide 1.56 μM): 0.004 s⁻¹
RI (HSC70 protein; peptide 3.12 μM): 18.7 RU
Req (HSC70 protein; peptide 3.12 μM): 242 RU
kobs (HSC70 protein; peptide 3.12 μM): 0.0058 s⁻¹
RI (HSC70 protein; peptide 6.25 μM): 25.9 RU
Req (HSC70 protein; peptide 6.25 μM): 29.9 RU
kobs (HSC70 protein; peptide 6.25 μM): 0.0094 s⁻¹
RI (HSC70 protein; peptide 12.5 μM): 36.9 RU
Req (HSC70 protein; peptide 12.5 μM): 33.9 RU
kobs (HSC70 protein; peptide 12.5 μM): 0.0166 s⁻¹
RI (HSC70 protein; peptide 25 μM): 53.4 RU
Req (HSC70 protein; peptide 25 μM): 36.3 RU
kobs (HSC70 protein; peptide 25 μM): 0.031 s⁻¹
Peripheral hypercellularity (leucocytes in peripheral blood) (MRL/lpr mice [2]): decrease peripheral hypercellularity
Proteinuria (MRL/lpr mice [3]): less important and appears lately
Stability (%) Linear equation: intercept ([4]; 50 μg/mL): 99.677
95% of stability (predicted) ([4]; 50 μg/mL): 2 years
Stability (%) Linear equation: slope ([4]; 50 μg/mL): y = −0.0064x +
Stability (%) Linear equation: intercept ([4]; 100 μg/mL): 100.11
95% of stability (predicted) ([4]; 100 μg/mL): 2 years +
Stability (%) Linear equation: slope ([4]; 100 μg/mL): y = −0.0064x +
95% of stability (predicted) ([4]; 200 μg/mL): ∞
Stability (%) ([4]; 50 μg/mL, day 0): 100%
Stability (%) ([4]; 50 μg/mL, day 20): 100%
Stability (%) ([4]; 50 μg/mL, day 40): 100%
Stability (%) ([4]; 50 μg/mL, day 100): 99.4%
Stability (%) ([4]; 100 μg/mL, day 0): 100%
Stability (%) ([4]; 100 μg/mL, day 20): 99.1%
Stability (%) ([4]; 100 μg/mL, day 40): 99.5%
Stability (%) ([4]; 100 μg/mL, day 100): 99.1%
Stability (%) ([4]; 200 μg/mL, day 0): 100%
Stability (%) ([4]; 200 μg/mL, day 20): 100%
Stability (%) ([4]; 200 μg/mL, day 40): 100%
Stability (%) ([4]; 200 μg/mL, day 100): 100%
